# Earlier results in patent US7807830B2, “Manufacture of pure hydralazine salts” (Navinta LLC, priority 2005, dated 2010).
# Structures can show the parent of a compound that is named as a salt. Where two headings read alike, the source gives them in different places.
smiles,measurement,setting,value
"NNc1nncc2ccccc12 [Hydralazine hydrochloride, 1-hydrazinophthalazine]",onset of action,given intravenously,10 to 20 min
same,duration of action,in vivo,3 to 4 h
same,maximum hypotensive effect in,in vivo,10 to 80 min
same,onset of action,oral administration,10 to 30 min
